Laboratory results as given in the supplement of paper PMC10733146.

Experiments:
Assay in all cases: viability relative to DMSO control (fraction); higher = less drug effect (more viable cells)
Conditions in all cases: 48 h
[1] = tested on: primary T-PLL patient cells (S008)
Outline: (§1)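 The cells were primary mononuclear tumour cells, either fresh or cryopreserved, isolated by Ficoll from blood or bone marrow or derived from processed lymph node. Each well of a 384-well plate received 4 × 10^4 cells onto compounds pre-plated at five concentrations, with one well per concentration. The medium was RPMI-1640 with penicillin/streptomycin, L-glutamine and human serum, and plates stood at 37 °C and 5% CO2 for 48 h. Viability is reported as CellTiter-Glo luminescence relative to the median of 16 inner DMSO wells.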

[2] = tested on: primary AML patient cells (S081)
Outline: as §1

[3] = tested on: primary AML patient cells (S006)
Outline: as §1

[4] = tested on: primary CLL patient cells (S031)
Outline: as §1

[5] = tested on: primary AML patient cells (S011)
Outline: as §1

[6] = tested on: primary CLL patient cells (S043)
Outline: as §1

[7] = tested on: primary MCL patient cells (S041)
Outline: as §1

[8] = tested on: primary BL patient cells (S005)
Outline: as §1

[9] = tested on: primary AML patient cells (S012)
Outline: as §1

[10] = tested on: primary MCL patient cells (S068)
Outline: as §1

[11] = tested on: primary MCL patient cells (S063)
Outline: as §1

[12] = tested on: primary AML patient cells (S037)
Outline: as §1

[13] = tested on: primary AML patient cells (S056)
Outline: as §1

[14] = tested on: primary AML patient cells (S085)
Outline: as §1

CC(C)(C)C[C@@H]1N[C@@H](C(=O)N[C@H]2CC[C@H](O)CC2)[C@H](c2cccc(Cl)c2F)[C@]12C(=O)Nc1cc(Cl)ccc12 [MI-773]
viability ([1]; 0.008 µM): 0.99
viability ([1]; 0.04 µM): 0.946
viability ([1]; 0.2 µM): 0.989
viability ([1]; 1 µM): 0.677
viability ([1]; 5 µM): 0.258
viability ([2]; 0.008 µM): 1
viability ([2]; 0.04 µM): 1.05
viability ([2]; 0.2 µM): 1.11
viability ([2]; 1 µM): 1.02
viability ([2]; 5 µM): 1.12
viability ([3]; 0.008 µM): 0.915
viability ([3]; 0.04 µM): 0.761
viability ([3]; 0.2 µM): 0.481
viability ([3]; 1 µM): 0.194
viability ([3]; 5 µM): 0.0491
viability ([4]; 0.008 µM): 0.97
viability ([4]; 0.04 µM): 0.819
viability ([4]; 0.2 µM): 0.593
viability ([4]; 1 µM): 0.439
viability ([4]; 5 µM): 0.0647
viability ([5]; 0.008 µM): 0.937
viability ([5]; 0.04 µM): 0.938
viability ([5]; 0.2 µM): 0.7
viability ([5]; 1 µM): 0.465
viability ([5]; 5 µM): 0.218
viability ([6]; 0.008 µM): 1.05
viability ([6]; 0.04 µM): 0.949
viability ([6]; 0.2 µM): 1
viability ([6]; 1 µM): 0.879
viability ([6]; 5 µM): 0.441
viability ([7]; 0.008 µM): 1.02
viability ([7]; 0.04 µM): 0.976
viability ([7]; 0.2 µM): 0.92
viability ([7]; 1 µM): 0.752
viability ([7]; 5 µM): 0.434
viability ([8]; 0.008 µM): 0.915
viability ([8]; 0.04 µM): 0.744
viability ([8]; 0.2 µM): 0.789
viability ([8]; 1 µM): 0.897
viability ([8]; 5 µM): 0.903
viability ([9]; 0.008 µM): 0.96
viability ([9]; 0.04 µM): 0.971
viability ([9]; 0.2 µM): 0.937
viability ([9]; 1 µM): 0.976
viability ([9]; 5 µM): 1.02
viability ([10]; 0.008 µM): 1.08
viability ([10]; 0.04 µM): 0.944
viability ([10]; 0.2 µM): 0.986
viability ([10]; 1 µM): 0.854
viability ([10]; 5 µM): 0.68
viability ([11]; 0.008 µM): 1.07
viability ([11]; 0.04 µM): 1.05
viability ([11]; 0.2 µM): 0.995
viability ([11]; 1 µM): 0.705
viability ([11]; 5 µM): 0.246
viability ([12]; 0.008 µM): 1.04
viability ([12]; 0.04 µM): 1.01
viability ([12]; 0.2 µM): 1.01
viability ([12]; 1 µM): 0.742
viability ([12]; 5 µM): 0.453
viability ([13]; 0.008 µM): 1.03
viability ([13]; 0.04 µM): 0.9
viability ([13]; 0.2 µM): 0.696
viability ([13]; 1 µM): 0.296
viability ([13]; 5 µM): 0.117
viability ([14]; 0.008 µM): 1.08
viability ([14]; 0.04 µM): 0.972
viability ([14]; 0.2 µM): 0.849
viability ([14]; 1 µM): 0.481
viability ([14]; 5 µM): 0.204
